Data from patent EP4585599A1, “NITROGEN-CONTAINING FUSED RING COMPOUND, INTERMEDIATE THEREOF, PREPARATION METHOD THEREFOR AND USE THEREOF” (Hangzhou Synrx Therapeutics Biomedical Technology Co., Ltd., priority 2022, dated 2024).
≈ marks a conversion by molar mass, not a printed value. Where “and” joins values, the source holds several entries; their conditions need not be identical. Equal entries are not always repeated. Where two headings read alike, the source gives them in different places.

How the values were obtained:
[1] = target: T1, helicase domain of the Pol θ protein (Homo sapiens, UniProt O75417); assay: Biochemical Activity Assay (ADP Glo Assay) of Pol θ inhibitor, ATPase activity
T1 construct: The helicase domain of the Pol θ protein was purified from insect protein expression system; made in house; host or cells: insect protein expression system

Solubility assay = settings: phosphate buffer, pH 7.4, aqueous buffer, kinetic from dmso stock
cells = settings: Homo sapiens, DLD-1, 240 h
in vitro = settings: mouse, microsomes, pH 7.4
[2] = Mouse PK assay after oral administration; settings: for MRT / half-life / bioavailability: male, ICR, mouse, po; for MRT / half-life / Area under curve (0-t; hr * ng/mL) / Peak concentration / bioavailability: plasma; for Time to peak / Area under curve (0-t; hr * ng/mL) / Peak concentration: mice, oral
[3] = read-out: Cell viability assay IC50
[4] = mouse, microsomes
[5] = ADP-Glo assay, ATPase activity of Pol θ helicase domain, ssDNA substrate, read-out: Biochemical assay IC50
[6] = ADP-Glo, ssDNA substrate, 60 min at room temperature, read-out: Biochemical assay IC50
[7] = read-out: Cell viability assay IC50 (nM), CTG assay, CellTiter Glo, read on Day 10, cell line not given
[8] = read-out: Cell viability assay IC50 (nM), CTG on Day 10, cell line not given (method: DLD1 and DLD1^-/- cells)
[9] = read-out: Cell viability assay IC50 (nM)
[10] = CTG on Day 10, cell line not given (method: DLD1 and DLD1^-/- cells)
[11] = read-out: Biochemical assay IC50
[12] = Biochemical assay IC50 (nM), ADP-Glo assay, ATPase activity of Pol θ helicase domain, ssDNA substrate
[13] = Biochemical assay IC50 (nM), ADP-Glo, ssDNA substrate, 60 min at room temperature

T1 sequence (O75417 102-554 limits assumed): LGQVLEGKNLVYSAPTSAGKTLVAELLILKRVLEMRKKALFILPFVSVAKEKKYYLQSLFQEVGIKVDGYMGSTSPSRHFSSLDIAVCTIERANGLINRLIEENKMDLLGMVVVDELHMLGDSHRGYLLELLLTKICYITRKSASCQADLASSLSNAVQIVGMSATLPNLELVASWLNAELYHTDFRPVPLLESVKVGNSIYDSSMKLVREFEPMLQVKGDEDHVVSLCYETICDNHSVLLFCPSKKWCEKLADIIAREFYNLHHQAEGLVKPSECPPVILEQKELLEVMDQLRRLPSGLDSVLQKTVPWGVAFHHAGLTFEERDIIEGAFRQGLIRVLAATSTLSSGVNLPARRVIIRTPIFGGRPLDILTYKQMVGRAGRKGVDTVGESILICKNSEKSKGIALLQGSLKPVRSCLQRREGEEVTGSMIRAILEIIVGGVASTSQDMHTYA

IC50 [1, 5] [nM]	solubility at 2 h (Solubility assay) [µM]	half-life at 1 µM (in vitro) [h]	SMILES	IC50 [1, 6] [nM]	IC50 (cells; [7]) [nM]	IC50 [3] [nM]	IC50 (cells; [9]) [nM]	further results
6.91	2.35 (≈ 1.21 µg/mL)		COc1ccc(Cl)cc1-c1cc(C)ncc1C(=O)Nc1nc2ncc(-c3ccc(C#N)cc3)nc2s1 [Comparative Example 1, reference compound]					
1.91	79.7 (≈ 40.3 µg/mL)	14.4	COc1cnc(Cl)cc1-c1cc(C)ncc1C(=O)Nc1nc2cnc(-c3c(C)cnn3C)cc2s1 [Example 87]	< 50	6.81			IC50 (cells; [8]): < 100 nM; MRT ([2]; 100 mg/kg): 3.45 h; half-life ([2]; 100 mg/kg): 2.12 h; Time to peak ([2]; administration dose 100 mg/kg): 0.25 h; Area under curve (0-t; hr * ng/mL) ([2]; administration dose 100 mg/kg): 300.735 µg·h/mL; Peak concentration ([2]; administration dose 100 mg/kg): 74833 ng/mL
			COc1cnc(Cl)cc1-c1cc(C)ncc1C(=O)Nc1nn2cc(-c3ccccn3)nc2s1 [Example 97, 2'-chloro-5'-methoxy-6-methyl-N-(6-(pyridin-2-vyl)imidazol[2,1-b][1,3,4]thiadiazol-2-yl)-[4,4'-bipyridine]-3-carboxamide]			1210	> 1000	IC50 ([1]; Biochemical assay IC50 (nM)): < 50 nM and 26.4 nM
			COc1cnc(Cl)c(F)c1-c1cc(C)ncc1C(=O)Nc1nc2ccccc2s1 [Examples 39]			108	100 to 500	IC50 [1, 11]: < 50 nM and 8.57 nM
2.84	63.7 (≈ 33.4 µg/mL)		COc1cnc(Cl)c(F)c1-c1cc(C)ncc1C(=O)Nc1nc2cnc(-c3c(C)nnn3C)cc2s1 [Example 172]					Half-life (T1/2, min) [4]: ∞; MRT ([2]; 30 mg/kg): 5.91 h; bioavailability ([2]; 30 mg/kg): 206%; half-life ([2]; 30 mg/kg): 5.1 h; Time to peak ([2]; administration dose 30 mg/kg): 0.25 h; Area under curve (0-t; hr * ng/mL) ([2]; administration dose 30 mg/kg): 429.051 µg·h/mL; Peak concentration ([2]; administration dose 30 mg/kg): 43555 ng/mL
			COc1cnc(Cl)cc1-c1cc(C)ncc1C(=O)Nc1nc2ncc([C@H]3CC[C@@H](O)CC3)cc2s1 [Example 26, 2'-chloro-N-(6-((1s, 4s)-4-hydroxycyclohexyl)thiazolo[4,5-b]pyridin-2-yl)-5'-methoxy-6-methyl-[4,4'-bipyridine]-3-carboxamide]			158	100 to 500	IC50 ([1]; Biochemical assay IC50 (nM)): < 50 nM and 5.69 nM
2.73	70.6 (≈ 36.1 µg/mL)	8.88	COc1cnc(Cl)cc1-c1cc(C)ncc1C(=O)Nc1nc2ncc(N3CCC(O)CC3)nc2s1 [Example 70]	< 50	14.2			IC50 (cells; [8]): < 100 nM; MRT ([2]; 100 mg/kg): 2.2 h; half-life ([2]; 100 mg/kg): 2.91 h; Time to peak ([2]; administration dose 100 mg/kg): 0.5 h; Area under curve (0-t; hr * ng/mL) ([2]; administration dose 100 mg/kg): 60.434 µg·h/mL; Peak concentration ([2]; administration dose 100 mg/kg): 22767 ng/mL
3.31	61.8 (≈ 32.4 µg/mL)	28.9	COc1cnc(Cl)cc1-c1cc(C)ncc1C(=O)Nc1nc2cnc(-c3c(C)nnn3C)c(F)c2s1 [Example 216]		< 1.52			MRT ([2]; 30 mg/kg): 3.38 h; bioavailability ([2]; 30 mg/kg): 178%; half-life ([2]; 30 mg/kg): 2.2 h; Time to peak ([2]; administration dose 30 mg/kg): 0.75 h; Area under curve (0-t; hr * ng/mL) ([2]; administration dose 30 mg/kg): 385.297 µg·h/mL; Peak concentration ([2]; administration dose 30 mg/kg): 89917 ng/mL
3.41	58.7 (≈ 30.7 µg/mL)	14.4	COc1cnc(C(F)F)cc1-c1cc(C)ncc1C(=O)Nc1nc2cnc(-c3c(C)noc3C)cc2s1 [Example 207]		8.57			MRT ([2]; 30 mg/kg): 5.13 h; bioavailability ([2]; 30 mg/kg): 311%; half-life ([2]; 30 mg/kg): 1.97 h; Time to peak ([2]; administration dose 30 mg/kg): 1.67 h; Area under curve (0-t; hr * ng/mL) ([2]; administration dose 30 mg/kg): 581.387 µg·h/mL; Peak concentration ([2]; administration dose 30 mg/kg): 52444 ng/mL
			COc1cnc(Cl)cc1-c1cc(C)ncc1C(=O)Nc1nc2ccc(C3(O)CCC(O)CC3)cc2s1 (stereo not drawn) [Examples 89]			171	100 to 500	IC50 [1, 11]: < 50 nM and 36.7 nM
			COc1cnc(Cl)cc1-c1cc(C)ncc1C(=O)Nc1nc2ncc([C@H]3CC[C@H](O)CC3)cc2s1 [Example 27, 2'-chloro-N-(6-((1r, 4r)-4-hydroxycyclohexyl)thiazolo[4,5-b]pyridin-2-yl)-5'-methoxy-6-methyl-[4,4'-bipyridine]-3-carboxamide]			736	500 to 1000	IC50 ([1]; Biochemical assay IC50 (nM)): < 50 nM and 10.3 nM
1.63	91.1 (≈ 47.6 µg/mL)		COc1cnc(C(F)F)cc1-c1cc(C)ncc1C(=O)Nc1nc2cnc(-c3c(C)nnn3C)cc2s1 [Example 180, 2'-(difluoromethyl)-N-(6-(1,4-dimethyl-1H-1,2,3-triazol-5-yl)thiazolo[4,5-c]pyridin-2-yl) -5'-methoxy-6-methyl-[4,4'-bipyridine]-3-carboxamide]		5.62			Half-life (T1/2, min) [4]: ∞; MRT ([2]; 30 mg/kg): 2.88 h; half-life ([2]; 30 mg/kg): 1.75 h; Time to peak ([2]; administration dose 30 mg/kg): 1.08 h; Area under curve (0-t; hr * ng/mL) ([2]; administration dose 30 mg/kg): 176.788 µg·h/mL; Peak concentration ([2]; administration dose 30 mg/kg): 44133 ng/mL
			COc1cnc(Cl)cc1-c1cc(C)ncc1C(=O)Nc1nc2ccc(N3CCOCC3)cc2s1 [Example 45, 2-chloro-5-methoxy-6-methyl-N-(6-morpholinylbenzothiazol-2-yl)-4, 4'-bipyridin-3-car boxamide]			141	100 to 500	IC50 [1, 12]: 25.4 nM; IC50 [1, 13]: < 50 nM
			COc1cnc(Cl)c(F)c1-c1cc(C)ncc1C(=O)Nc1nc2c(s1)CN(C(=O)C1CCOC1)CC2 (stereo not drawn) [Example 54, 2'-chloro-3'-fluoro-5'-methoxy-6-methyl-N-(5-(tetrahydrofuran-3-carbonyl)-4,5,6,7-tetrahydrothiazol[5,4-c]pyridin-2-yl)-[4,4'-bipyridine]-3-carboxamide]			794	500 to 1000	IC50 ([1]; Biochemical assay IC50 (nM)): < 50 nM and 40.6 nM
1240			COc1cnc(Cl)cc1-c1cc(C)ncc1C(=O)Nc1nc2c(s1)CNCC2 [Example 41, 2'-chloro-5'-methoxy-6-methyl-N-(4,5,6,7-tetrahydrothiazol[5,4-c]pyridin-2-yl)-[4,4'-bipyridine]-3-carboxamide]	> 500				IC50 [3, 10]: > 1000 nM
1.84	4.61 (≈ 2.34 µg/mL)	10.5	COc1cnc(Cl)cc1-c1cc(C)ncc1C(=O)Nc1nc2cnc(-c3c(C)nnn3C)cc2s1 [Example 175, 2'-chloro-N-(6-(1,4-dimethyl-1H-1,2,3-triazol-5-yl)thiazolo[4,5-c]pyridin-2-yl)-5'-methoxy-6-methyl-[4,4'-bipyridine]-3-carboxamide]		10			MRT ([2]; 30 mg/kg): 4.58 h; bioavailability ([2]; 30 mg/kg): 151%; half-life ([2]; 30 mg/kg): 2.68 h; Time to peak ([2]; administration dose 30 mg/kg): 1.67 h; Area under curve (0-t; hr * ng/mL) ([2]; administration dose 30 mg/kg): 293.209 µg·h/mL; Peak concentration ([2]; administration dose 30 mg/kg): 42933 ng/mL
			[2H]C([2H])([2H])c1cc(-c2cc(Cl)ncc2OC)c(C(=O)Nc2nc3ccc(N4CCC(O)CC4)nc3s2)cn1 [Example 109]			147	< 100	IC50 [1, 12]: 6.71 nM; IC50 [1, 13]: < 50 nM
3.11	76.4 (≈ 38.8 µg/mL)	3.75	COc1cnc(Cl)cc1-c1cc(C)ncc1C(=O)Nc1nc2cnc(C3=CCC(O)CC3)cc2s1 (stereo not drawn) [Example 11]	< 50	11.2			IC50 (cells; [8]): < 100 nM; MRT ([2]; 25 mg/kg): 3.15 h; half-life ([2]; 25 mg/kg): 2.19 h; Time to peak ([2]; administration dose 25 mg/kg): 0.83 h; Area under curve (0-t; hr * ng/mL) ([2]; administration dose 25 mg/kg): 26.324 µg·h/mL; Peak concentration ([2]; administration dose 25 mg/kg): 7407 ng/mL
			COc1cnc(Cl)cc1-c1cc2cnc(C)n2cc1C(=O)Nc1nc2ccc(C3=CCC(O)CC3)nc2s1 (stereo not drawn) [Example 55, 7-(2-chloro-5-methoxypyridin-4-yl)-N-(5-(4-hydroxycyclohex-1-en-1-yl)thiazol[5,4-b]pyridin-2-yl)-3-methylimidazol[1,5-a]pyridin-6-carboxamide]			112	100 to 500	IC50 ([1]; Biochemical assay IC50 (nM)): < 50 nM and 28.7 nM

SMILES	IC50 [1, 5] [nM]	solubility at 2 h (Solubility assay) [µM]	half-life at 1 µM (in vitro) [h]	IC50 [1, 6] [nM]	IC50 (cells; [7]) [nM]	IC50 [3] [nM]	IC50 (cells; [9]) [nM]	further results
COc1cnc(Cl)cc1-c1cc(C)ncc1C(=O)Nc1nc2ccc(N3CCC(O)CC3)nc2s1 [Example 46]	8.31	61.5 (≈ 31.4 µg/mL)	7.9	< 50		60.7	< 100	MRT ([2]; 25 mg/kg): 4.13 h; bioavailability ([2]; 25 mg/kg): 127%; half-life ([2]; 25 mg/kg): 1.59 h; Time to peak ([2]; administration dose 25 mg/kg): 2.0 h; Area under curve (0-t; hr * ng/mL) ([2]; administration dose 25 mg/kg): 46.041 µg·h/mL; Peak concentration ([2]; administration dose 25 mg/kg): 7217 ng/mL
COc1cnc(Cl)cc1-c1cc(C)ncc1C(=O)Nc1nc2c(s1)CN(C1CCC(O)CC1)CC2 (stereo not drawn) [Example 42, 2'-chloro-N-(5-(4-hydroxycyclohexyl)-4,5,6,7-tetrahydrothiazol[5,4-c]pyridin-2-yl)-5'-m ethoxy-6-methyl-[4,4'-bipyridine]-3-carboxamide]	200			200 to 500				IC50 [3, 10]: > 1000 nM
COc1cnc(Cl)cc1-c1cnccc1C(=O)Nc1nc2ccc([C@H]3CC[C@@H](O)CC3)nc2s1 [Example 33]	24.9			< 50		171	100 to 500	
COc1cnc(Cl)cc1-c1cc(C)ncc1C(=O)Nc1nc2ccc([C@H]3CC[C@@H](O)CC3)nc2s1 [Example 28]	12.1			< 50		178	100 to 500	
